Reference: ChEMBL document CHEMBL5376003, “Structure-Activity Relationship of FL118 Platform Position 7 Versus Position 9-Derived Compounds and Their Mechanism of Action and Antitumor Activity” (J Med Chem, 2023)
The source made the active and inactive calls. The rule behind the calls is not given here.

Tests used:
HCT-116 [1] = test: Induction of apoptosis in human HCT-116 cells assessed as downregulation of RFC3 mRNA expression at 10 to 500 nM incubated for 6 to 48 hrs by RNA analysis; type: functional, cell-based; details: dose 10-500 nM, time 6-48 hrs
HCT-116 [2] = test: Induction of apoptosis in human HCT-116 cells assessed as downregulation of Survivin protein expression incubated for 48 hrs by Western blotting analysis; type: functional, cell-based
HCT-116 [3] = test: Activation of innate immune response in human HCT-116 cells assessed as upregulation of IFIH1 gene expression at 10 to 500 nM incubated for 6 to 48 hrs by RNA analysis; type: functional, cell-based; details: dose 10-500 nM, time 6-48 hrs
HCT-116 [4] = test: Induction of apoptosis in human HCT-116 cells assessed as modulation of DDX18 mRNA expression at 10 to 500 nM incubated for 6 to 48 hrs by RNA analysis; type: functional, cell-based; details: dose 10-500 nM, time 6-48 hrs
HCT-116 [5] = test: Induction of apoptosis in human HCT-116 cells assessed as downregulation of NDC1 gene expression at 10 to 500 nM incubated for 6 to 48 hrs by RNA analysis; type: functional, cell-based; details: dose 10-500 nM, time 6-48 hrs
HCT-116 [6] = test: Induction of apoptosis in human HCT-116 cells assessed as downregulation of NUP58 gene expression at 10 to 500 nM incubated for 6 to 48 hrs by RNA analysis; type: functional, cell-based; details: dose 10-500 nM, time 6-48 hrs
HCT-116 [7] = test: Induction of apoptosis in human HCT-116 cells assessed as downregulation of NUP205 gene expression at 10 to 500 nM incubated for 6 to 48 hrs by RNA analysis; type: functional, cell-based; details: dose 10-500 nM, time 6-48 hrs
HCT-116 [8] = test: Induction of apoptosis in human HCT-116 cells assessed as upregulation of ADA mRNA expression at 10 to 500 nM incubated for 6 to 48 hrs by RNA analysis; type: functional, cell-based; details: dose 10-500 nM, time 6-48 hrs
HCT-116 [9] = test: Induction of apoptosis in human HCT-116 cells assessed as downregulation of AAAS gene expression at 10 to 500 nM incubated for 6 to 48 hrs by RNA analysis; type: functional, cell-based; details: dose 10-500 nM, time 6-48 hrs
HCT-116 [10] = test: Induction of apoptosis in human HCT-116 cells assessed as downregulation of RANBP2 gene expression at 10 to 500 nM incubated for 6 to 48 hrs by RNA analysis; type: functional, cell-based; details: dose 10-500 nM, time 6-48 hrs
HCT-116 [11] = test: Induction of apoptosis in human HCT-116 cells assessed as upregulation of POLR2A mRNA expression at 10 to 500 nM incubated for 6 to 48 hrs by RNA analysis; type: functional, cell-based; details: dose 10-500 nM, time 6-48 hrs
HCT-116 [12] = test: Induction of apoptosis in human HCT-116 cells assessed as downregulation of XIAP protein expression incubated for 48 hrs by Western blotting analysis; type: functional, cell-based
HCT-116 [13] = test: Induction of apoptosis in human HCT-116 cells assessed as upregulation of GADD45A mRNA expression at 10 to 500 nM incubated for 6 to 48 hrs by RNA analysis; type: functional, cell-based; details: dose 10-500 nM, time 6-48 hrs
[14] = Toxicity in SCID mouse xenografted with human PDX27454 cells assessed as body weight loss at 2.5 to 5 mg/kg,ip administrated once per week for 4 weeks; type: organism-based; details: in vivo, 672 h, dose 2.5-5 mg/kg
HCT-116 [15] = test: Activation of innate immune response in human HCT-116 cells assessed as upregulation of IRF7 gene expression at 10 to 500 nM incubated for 6 to 48 hrs by RNA analysis; type: functional, cell-based; details: dose 10-500 nM, time 6-48 hrs
HCT-116 [16] = test: Activation of innate immune response in human HCT-116 cells assessed as upregulation of IL-12RB2 gene expression at 10 to 500 nM incubated for 6 to 48 hrs by RNA analysis; type: functional, cell-based; details: dose 10-500 nM, time 6-48 hrs
PDX27454 [17] = test: Antitumor activity against human PDX27454 cells xenografted in SCID mouse model assessed as reduction in tumor growth at 3 to 7 mg/kg,po administrated once per week for 4 weeks; type: functional, organism-based; details: dose 3-7 mg/kg
HCT-116 [18] = test: Induction of apoptosis in human HCT-116 cells assessed as downregulation of AK8 gene expression at 10 to 500 nM incubated for 6 to 48 hrs by RNA analysis; type: functional, cell-based; details: dose 10-500 nM, time 6-48 hrs
HCT-116 [19] = test: Induction of apoptosis in human HCT-116 cells assessed as downregulation of END1 gene expression at 10 to 500 nM incubated for 6 to 48 hrs by RNA analysis; type: functional, cell-based; details: dose 10-500 nM, time 6-48 hrs
[20] = Toxicity in SCID mouse xenografted with human PDX27454 cells assessed as body weight loss at 8 mg/kg,po administrated once per week for 3 weeks; type: organism-based; details: in vivo, 504 h
HCT-116 [21] = test: Induction of apoptosis in human HCT-116 cells assessed as downregulation of ADK gene expression at 10 to 500 nM incubated for 6 to 48 hrs by RNA analysis; type: functional, cell-based; details: dose 10-500 nM, time 6-48 hrs
[22] = Toxicity in SCID mouse assessed as maximum tolerated dose at po administration; type: organism-based; details: in vivo
HCT-116 [23] = test: Induction of apoptosis in human HCT-116 cells assessed as early apoptotic cells at 5 nM incubated for 48 hrs by Annexin V-FITC/PI staining based flow cytometry assay; type: functional
HCT-116 [24] = test: Induction of apoptosis in human HCT-116 cells assessed as upregulation of p21 protein expression incubated for 48 hrs by Western blotting analysis; type: functional, cell-based
HCT-116 [25] = test: Induction of apoptosis in human HCT-116 cells assessed as upregulation of Bax protein expression incubated for 48 hrs by Western blotting analysis; type: functional, cell-based
HCT-116 [26] = test: Induction of apoptosis in human HCT-116 cells assessed as downregulation of Bcl-2 protein expression incubated for 48 hrs by Western blotting analysis; type: functional, cell-based
HCT-116 [27] = test: Induction of apoptosis in human HCT-116 cells assessed as late apoptotic cells at 2.5 nM incubated for 48 hrs by Annexin V-FITC/PI staining based flow cytometry assay; type: functional
HCT-116 [28] = test: Induction of apoptosis in human HCT-116 cells assessed as upregulation of cytochrome-C protein expression incubated for 48 hrs by Western blotting analysis; type: functional, cell-based
HCT-116 [29] = test: Induction of apoptosis in human HCT-116 cells assessed as late apoptotic cells at 5 nM incubated for 48 hrs by Annexin V-FITC/PI staining based flow cytometry assay; type: functional
HCT-116 [30] = test: Induction of apoptosis in human HCT-116 cells assessed as early apoptotic cells at 2.5 nM incubated for 48 hrs by Annexin V-FITC/PI staining based flow cytometry assay; type: functional
PDX27454 [31] = test: Antitumor activity against human PDX27454 cells xenografted in SCID mouse model assessed as reduction in tumor growth at 10 mg/kg,ip administrated once per week for 4 weeks; type: functional, organism-based
PDX27454 [32] = test: Antitumor activity against human PDX27454 cells xenografted in SCID mouse model assessed as reduction in tumor growth at 15 mg/kg,ip administrated once per week for 4 weeks; type: functional, organism-based
PDX27454 [33] = test: Antitumor activity against human PDX27454 cells xenografted in SCID mouse model assessed as reduction in tumor growth at 10 mg/kg,po administrated once per week for 4 weeks; type: functional, organism-based
[34] = Toxicity in SCID mouse xenografted with human PDX27454 cells assessed as body weight loss at 15 mg/kg,ip administrated once per week for 4 weeks; type: organism-based; details: in vivo, 672 h
[35] = Toxicity in SCID mouse xenografted with human PDX27454 cells assessed as body weight loss at 15 mg/kg,po administrated once per week for 4 weeks; type: organism-based; details: in vivo, 672 h
PDX27454 [36] = test: Antitumor activity against human PDX27454 cells xenografted in SCID mouse model assessed as reduction in tumor growth at 15 mg/kg,po administrated once per week for 4 weeks; type: functional, organism-based

Compound	Activity (HCT-116 [1])	Activity (HCT-116 [2])	Activity (HCT-116 [3])	Activity (HCT-116 [4])	Activity (HCT-116 [5])	Activity (HCT-116 [6])	Activity (HCT-116 [7])	Activity (HCT-116 [8])	Activity (HCT-116 [9])	Activity (HCT-116 [10])	Activity (HCT-116 [11])	Activity (HCT-116 [12])	Activity (HCT-116 [13])	Activity (HCT-116 [15])	Activity (HCT-116 [16])	Activity (HCT-116 [18])	Activity (HCT-116 [19])	further results
CC[C@@]1(O)C(=O)OCc2c1cc1n(c2=O)Cc2c-1nc1cc3c(cc1c2-c1ccc(OC)cc1)OCO3	Active	Active	Active	Active	Active	Active	Active	Active	Active	Active	Active	Active	Active	Active	Active	Active	Active	Activity [14]: Toxic; Activity (PDX27454 [17]): Active; Activity [20]: 20%
CC[C@@]1(O)C(=O)OCc2c1cc1n(c2=O)Cc2cc3cc4c(cc3nc2-1)OCO4	Active	–	Active	Active	Active	Active	Active	Active	Active	Active	Active	–	Active	Active	Active	Active	Active	Activity (HCT-116 [21]): Active; MTD [22]: 10 mg/kg
CC[C@@]1(O)C(=O)OCc2c1cc1n(c2=O)Cc2c-1nc1cc3c(cc1c2-c1cc(OC)cc(OC)c1)OCO3	Active	Active	Active	Active	Active	–	Active	–	Active	Active	Active	–	Active	Active	Active	Active	Active	Activity (HCT-116 [23]): 26.86%; Activity (HCT-116 [24]): Dose-Dependent Effect; Activity (HCT-116 [25]): Dose-Dependent Effect; Activity (HCT-116 [26]): Dose-Dependent Effect; Activity (HCT-116 [27]): 5.58%; Activity (HCT-116 [28]): Dose-Dependent Effect; Activity (HCT-116 [29]): 9.79%; Activity (HCT-116 [30]): 20.76%
CCc1ccc(-c2c3c(nc4cc5c(cc24)OCO5)-c2cc4c(c(=O)n2C3)COC(=O)[C@]4(O)CC)cc1	Active	Active	Active	Active	Active	Active	Active	Active	Active	Active	Active	Active	Active	Active	Active	Active	Active	Activity (PDX27454 [31]): inactive; Activity (PDX27454 [32]): inactive; Activity (PDX27454 [33]): Active; Activity [34]: Non-Toxic; Activity [35]: Toxic; Activity (PDX27454 [36]): Active
